Several values for one entry are separate records, joined by “and”; a condition that tells them apart may be missing. Identical values can stand only once.
Tested on: 156681-154-R-J1-PDC complex spheroid viability
Test: Anticancer human tumor 156681-154-R-J1-PDC patient-derived melanoma cell line growth inhibition [CLK]
Details: for viability, T/C: stronger effect = lower value; active = viability on the fitted dose curve at most 10% of control; inactive = the rest
In short: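 Patient-derived tumor cells grown as complex spheroids with HUVEC endothelial cells and mesenchymal stem cells, treated with drug combinations. Concentrations descend in half-log steps from near clinical Cmax, or from 10 microM if Cmax unknown.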

[1] = curve of first compound, second compound 0.0316 µM
[2] = curve of first compound, second compound 0.1 µM
[3] = curve of first compound, second compound 0.316 µM
[4] = curve of first compound, second compound 1 µM
[5] = curve of first compound, second compound 3.16 µM
[6] = curve of first compound, second compound 10 µM
[7] = second compound 0.0316 µM, first compound 0.0316 µM
[8] = second compound 0.0316 µM, first compound 0.1 µM
[9] = second compound 0.0316 µM, first compound 0.316 µM
[10] = second compound 0.0316 µM, first compound 1 µM
[11] = second compound 0.0316 µM, first compound 3.16 µM
[12] = second compound 0.0316 µM, first compound 10 µM
[13] = second compound 0.1 µM, first compound 0.0316 µM
[14] = second compound 0.1 µM, first compound 0.1 µM
[15] = second compound 0.1 µM, first compound 0.316 µM
[16] = second compound 0.1 µM, first compound 1 µM
[17] = second compound 0.1 µM, first compound 3.16 µM
[18] = second compound 0.1 µM, first compound 10 µM
[19] = second compound 0.316 µM, first compound 0.0316 µM
[20] = second compound 0.316 µM, first compound 0.1 µM
[21] = second compound 0.316 µM, first compound 0.316 µM
[22] = second compound 0.316 µM, first compound 1 µM
[23] = second compound 0.316 µM, first compound 3.16 µM
[24] = second compound 0.316 µM, first compound 10 µM
[25] = second compound 1 µM, first compound 0.0316 µM
[26] = second compound 1 µM, first compound 0.1 µM
[27] = second compound 1 µM, first compound 0.316 µM
[28] = second compound 1 µM, first compound 1 µM
[29] = second compound 1 µM, first compound 3.16 µM
[30] = second compound 1 µM, first compound 10 µM
[31] = second compound 3.16 µM, first compound 0.0316 µM
[32] = second compound 3.16 µM, first compound 0.1 µM
[33] = second compound 3.16 µM, first compound 0.316 µM
[34] = second compound 3.16 µM, first compound 1 µM
[35] = second compound 3.16 µM, first compound 3.16 µM
[36] = second compound 3.16 µM, first compound 10 µM
[37] = second compound 10 µM, first compound 0.0316 µM
[38] = second compound 10 µM, first compound 0.1 µM
[39] = second compound 10 µM, first compound 0.316 µM
[40] = second compound 10 µM, first compound 1 µM
[41] = second compound 10 µM, first compound 3.16 µM
[42] = second compound 10 µM, first compound 10 µM
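Also: spheroids exposed to the agents for seven days.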
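For viability, T/C in this document: 100% = DMSO vehicle control viability.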

COC1C=CCC(C)C(C)S(=O)(=O)NC(=O)c2ccc3c(c2)N(CC2CCC21)CC1(CCCc2cc(Cl)ccc21)CO3 (configuration not stated) + CN1CCN(c2cc(C(=O)Nc3cc4cc(-c5cnn(C)c5)ccc4cn3)ccn2)CC1
< 31.6 nM: IC50 [3] | IC50 [4] | IC50 [5] | IC50 [6]
active: viability, T/C [12] 1.82% | viability, T/C [18] 2.71% | viability, T/C [22] 10.2% | viability, T/C [23] 4.46% | viability, T/C [24] 1.8% | viability, T/C [25] 0.2% | viability, T/C [26] 0.34% | viability, T/C [27] 0.18% | viability, T/C [28] 0.14% | viability, T/C [29] 0.12% | viability, T/C [30] 2.25% | viability, T/C [31] 0.14% | viability, T/C [32] 2.92% | viability, T/C [33] 1.77% | viability, T/C [34] 0.13% | viability, T/C [35] 2.33% | viability, T/C [36] 1.15% | viability, T/C [37] 0.16% | viability, T/C [38] 0.14% | viability, T/C [39] 0.26% | viability, T/C [40] 0.22% | viability, T/C [41] 0.29% | viability, T/C [42] 0.25%
1170 nM: IC50 [2]
inactive: viability, T/C [7] 111% | viability, T/C [8] 83.4% | viability, T/C [9] 86.8% | viability, T/C [10] 75.4% | viability, T/C [11] 13.8% | viability, T/C [13] 90.1% | viability, T/C [14] 97.8% | viability, T/C [15] 81.2% | viability, T/C [16] 58% | viability, T/C [17] 11.7% | viability, T/C [19] 27.3% | viability, T/C [20] 17.2% | viability, T/C [21] 16.7%
1600 nM: IC50 [1]

CCCS(=O)(=O)Nc1ccc(F)c(C(=O)c2c[nH]c3ncc(-c4ccc(Cl)cc4)cc23)c1F + CN1CCN(c2cc(C(=O)Nc3cc4cc(-c5cnn(C)c5)ccc4cn3)ccn2)CC1
< 31.6 nM: IC50 [3] | IC50 [4] | IC50 [5] | IC50 [6]
4960 nM: IC50 [2]
active: viability, T/C [25] 0.19% | viability, T/C [26] 0.44% | viability, T/C [27] 0.19% | viability, T/C [28] 0.14% | viability, T/C [29] 0.12% | viability, T/C [30] 0.13% | viability, T/C [31] 0.3% | viability, T/C [32] 0.48% | viability, T/C [33] 0.11% | viability, T/C [34] 0.27% | viability, T/C [35] 3.96% | viability, T/C [36] 0.11% | viability, T/C [37] 0.13% | viability, T/C [38] 1.59% | viability, T/C [39] 0.27% | viability, T/C [40] 0.21% | viability, T/C [41] 3.86% | viability, T/C [42] 0.17%
6050 nM: IC50 [1]
inactive: viability, T/C [7] 95.2% | viability, T/C [8] 88.7% | viability, T/C [9] 104% | viability, T/C [10] 94.7% | viability, T/C [11] 99.7% | viability, T/C [12] 13.9% | viability, T/C [13] 88.3% | viability, T/C [14] 80.8% | viability, T/C [15] 76.7% | viability, T/C [16] 85% | viability, T/C [17] 74.8% | viability, T/C [18] 11.3% | viability, T/C [19] 25.4% | viability, T/C [20] 19.6% | viability, T/C [21] 28.6% | viability, T/C [22] 29.9% | viability, T/C [23] 24.9% | viability, T/C [24] 3.74%

COc1cccc2c1C(=O)c1c(O)c3c(c(O)c1C2=O)CC(O)(C(=O)CO)CC3OC1CC(N)C(O)C(C)O1 (configuration not stated) + CNC(=O)c1ccc(Nc2nc(OC3CCCC3)c3c(-c4ccc5nc(C)oc5c4)c[nH]c3n2)c(OC)c1
active: viability, T/C [9] 2.62% | viability, T/C [10] 0.17% | viability, T/C [11] 0.29% | viability, T/C [12] 2.75% | viability, T/C [15] 3.42% | viability, T/C [16] 0.17% | viability, T/C [17] 0.11% | viability, T/C [18] 0.1% | viability, T/C [21] 2.21% | viability, T/C [22] 0.13% | viability, T/C [23] 0.1% | viability, T/C [24] 0.32% | viability, T/C [26] 9.29% | viability, T/C [27] 1.41% | viability, T/C [28] 0.1% | viability, T/C [29] 1.2% | viability, T/C [30] 1.16% | viability, T/C [32] 6.96% | viability, T/C [33] 0.58% | viability, T/C [34] 0.12% | viability, T/C [35] 0.1% | viability, T/C [36] 0.08% | viability, T/C [38] 6.19% | viability, T/C [39] 2.01% | viability, T/C [40] 0.71% | viability, T/C [41] 0.12% | viability, T/C [42] 0.11%
inactive: viability, T/C [7] 28.9% | viability, T/C [8] 20.6% | viability, T/C [13] 27.2% | viability, T/C [14] 20% | viability, T/C [19] 30.7% | viability, T/C [20] 18.2% | viability, T/C [25] 18.9% | viability, T/C [31] 17.6% | viability, T/C [37] 16.3%
< 31.6 nM: IC50 [1] | IC50 [2] | IC50 [3] | IC50 [4] | IC50 [5] | IC50 [6]

CC(CO)NC(=O)c1cc(-c2ccc(Cl)cc2)nn(-c2cnn(C)c2)c1=O (configuration not stated) + CNC(=O)c1ccc(Nc2nc(OC3CCCC3)c3c(-c4ccc5nc(C)oc5c4)c[nH]c3n2)c(OC)c1
< 31.6 nM: IC50 [4] | IC50 [5] | IC50 [6]
> 10000 nM: IC50 [1] | IC50 [2]
4910 nM: IC50 [3]
inactive: viability, T/C [7] 83.5% | viability, T/C [8] 107% | viability, T/C [9] 122% | viability, T/C [10] 101% | viability, T/C [11] 86.5% | viability, T/C [12] 56.8% | viability, T/C [13] 53.1% | viability, T/C [14] 84.6% | viability, T/C [15] 78.9% | viability, T/C [16] 81.7% | viability, T/C [17] 67.2% | viability, T/C [18] 50.6% | viability, T/C [19] 62.9% | viability, T/C [20] 71.4% | viability, T/C [21] 58.8% | viability, T/C [22] 58.8% | viability, T/C [23] 59.3% | viability, T/C [24] 38.2% | viability, T/C [25] 50.8% | viability, T/C [26] 42.9% | viability, T/C [27] 37.6% | viability, T/C [28] 44.8% | viability, T/C [29] 39.2% | viability, T/C [30] 35.3% | viability, T/C [31] 47.4% | viability, T/C [32] 36.9% | viability, T/C [33] 42.1% | viability, T/C [34] 36.7% | viability, T/C [35] 37.8% | viability, T/C [36] 23.2% | viability, T/C [37] 42.6% | viability, T/C [38] 43.8% | viability, T/C [39] 35.8% | viability, T/C [40] 35.6% | viability, T/C [41] 29.5% | viability, T/C [42] 21.2%

C=C(F)C(=O)N1CCN(c2nc(OCC3CCCN3C)nc3c2CCN(c2cccc4cccc(Cl)c24)C3)CC1CC#N (configuration not stated) + CN1CCN(c2cc(C(=O)Nc3cc4cc(-c5cnn(C)c5)ccc4cn3)ccn2)CC1
< 31.6 nM: IC50 [3] | IC50 [4] | IC50 [5] | IC50 [6]
inactive: viability, T/C [7] 101% | viability, T/C [8] 107% | viability, T/C [9] 108% | viability, T/C [10] 81.1% | viability, T/C [11] 44% | viability, T/C [13] 94.3% | viability, T/C [14] 94.6% | viability, T/C [15] 91.7% | viability, T/C [16] 79.5% | viability, T/C [17] 20% | viability, T/C [19] 22.1% | viability, T/C [20] 24.1% | viability, T/C [21] 23.3% | viability, T/C [22] 24.7% | viability, T/C [23] 6.76%
1770 nM: IC50 [2]
active: viability, T/C [12] 0.43% | viability, T/C [18] 0.6% | viability, T/C [24] 1.76% | viability, T/C [25] 0.16% | viability, T/C [26] 0.32% | viability, T/C [27] 0.25% | viability, T/C [28] 0.59% | viability, T/C [29] 0.1% | viability, T/C [30] 0.24% | viability, T/C [31] 0.12% | viability, T/C [32] 1.74% | viability, T/C [33] 1.8% | viability, T/C [34] 0.12% | viability, T/C [35] 0.36% | viability, T/C [36] 1.56% | viability, T/C [37] 0.17% | viability, T/C [38] 0.19% | viability, T/C [39] 1.71% | viability, T/C [40] 0.23% | viability, T/C [41] 0.23% | viability, T/C [42] 0.8%
2590 nM: IC50 [1]

C=C(F)C(=O)N1CCN(c2nc(OCC3CCCN3C)nc3c2CCN(c2cccc4cccc(Cl)c24)C3)CC1CC#N (configuration not stated)
1100 nM and 2120 nM: IC50 (curve of compound)
inactive: viability, T/C (compound 0.0316 µM) 62.4% and 97.8% | viability, T/C (compound 0.1 µM) 68.8% and 78% | viability, T/C (compound 0.316 µM) 85% and 95.9% | viability, T/C (compound 1 µM) 51.9% and 90.4%
11.4% and 28.5%: viability, T/C (compound 3.16 µM)
active: viability, T/C (compound 10 µM) 1.93% and 0.2%

— PubChem BioAssay AID2060627 (Molecular Pharmacology Branch, DTP, NCI, 2025)
